Laboratory results published in patent US20250152605A1, “METHOD AND DRUG FOR TREATING NEURONAL CEROID LIPOFUSCINOSIS” (priority 2021, published 2025).

Legend:
[1] = system: CLN3^Δex7/8 neural stem cells; assay: Differentiation of CLN3^Δex7/8 neural stem cells into neurons; format: cell-based, human; conditions: after 17 days of differentiation
Procedure: When the density of human induced neural stem cells reached 85-95%, passage was performed at 1:20-1:50 according to the above method. The medium on the day of passage (recorded as Day 1 of differentiation) was human neural stem cell maintenance medium with 10 μM Y27632, which was removed after 24 h, and culture continued in human neural stem cell maintenance medium for 48 hours. On Day 4 of differentiation, the medium was changed to human neuronal differentiation medium (human neuronal medium: DMEM/F12 medium+10 ng/ml hBDNF+10 ng/ml hGDNF+300 ng/mL cAMP+0.2 mM vitamin C+1×N2+1×B27+1% Penicillin/Streptomycin), with medium change halfly every other day. Human neurons highly expressing MAP2 and TUJ1 proteins were obtained on Day 17 of differentiation. Thereafter, the human neurons could be continuously cultured in the human neuron differentiation medium, with medium change halfly every other day.
Starting from the same number of human neural stem cells induced to differentiate into human neurons, CLN3^Δex7/8 neural stem cells eventually generated a lower number of neurons than wild-type cells. During the process of neurons differentiation, the seven small molecule compounds obtained above were each added to the culture medium and observed for their effects on the differentiation process of CLN3^Δex7/8 neural stem cells into neurons.

p62 protein = p62 protein blotting with Baf-A1 (autophagic flux) in human neurons; format: cell-based
Procedure: Sample preparation: for adherent cultured cells, exemplified by cells cultured in a six-well cell plate, the cell medium was aspirated and the cells were washed once with dPBS. About 100 μL of RIPA lysate (50 mM Tris-HCl, pH 7.5, 150 mM NaCl, 0.25% Na-deoxycholate, 0.1% NP-40, 0.1% Triton X-100) containing protease inhibitors and phosphatase inhibitors was added to each well. The cell lysate was scraped off completely with a cell scraper and collected into 1.5 mL EP tubes. Lysis was continued for 30 minutes on ice. For animal tissue, the weight of the animal tissue was weighed, and RIPA lysate containing protease inhibitors and phosphatase inhibitors was added with five times the volume of the animal tissue. The tissue was grinded on ice with a tissue grinder until there is no obvious tissue mass, collected into 1.5 mL EP tubes, and placed on ice for further lysis for 30 min. […]

Cln3 KO mice = assay: Immunohistochemical staining of SCMAS in Cln3 KO mouse brain; format: in vivo; conditions: Cln3 KO mice treated from 21 days to 2 months of age
[2] = system: KEAP1-knockdown CLN3^Δex7/8 human neurons; assay: Lysotracker staining of KEAP1-knockdown CLN3^Δex7/8 human neurons; format: cell-based; conditions: added to KEAP1-knockdown CLN3^Δex7/8 human neurons
Procedure: shRNA knockdown experiments of genes such as CLN3 and KEAP1 were conducted in induced neural stem cells and neurons, with specific steps as follows: the neural stem cells were planted into a desired cell culture plate to a cell density of about 50% or the neural stem cells were differentiated into human neurons in the cell culture plate according to experimental requirements; the shRNA lentiviral plasmids of CLN3 and KEAP1 genes and the control lentiviral plasmid expressing non-target sequences were selected from the MISSIOH human shRNA library of Sigma Aldrich, and the sequences were shown in Table 6; Lentiviruses was packaged in 10 cm cell culture plates and virus-containing supernatant was collected by filtration according to the method described above; the supernatant and lentivirus concentrate (40% PEG-8000 and 1.2M sodium chloride dissolved in dPBS solution, pH˜ 7.0) were mixed in a volume ratio of 1:3, and incubated overnight at 4° C. with slow rotation; centrifugation at 13000 g for 30 minutes at 4° C., and the supernatant was discarded, and the pellet was resuspended in 1 mL of fresh cell culture medium and added to the target cells; after 8 hours of infection, the virus was aspirated and fresh cell culture medium was added; 48 hours after infection, 1.5 μg/mL puromycin was added for selection for 72 hours, and the surviving cells were used for subsequent experiments. […]

Structure (SMILES): C/C=C1\C(=O)C[C@H]2[C@@H]3CCC4=CC(=O)CC[C@]4(C)[C@H]3CC[C@]12C [Compound G, (Z)-guggulsterone]
- MAP2 and TUJ1-positive neurons generated from the same number of cells [1]: generate more MAP2 and TUJ1-positive neurons
- increases of p62 protein after adding Baf-A1 (autophagic flux) (p62 protein; CLN3^Δex7/8 human neurons): higher increases of p62 protein
- intracellular protein level of p62 (p62 protein; under the condition of adding Baf-A1): still significantly increase
- substances (SCMAS) abnormally stored in the brains (Cln3 KO mice): alleviate the amount of the substances abnormally stored in the brains of Cln3 KO mice to a certain extent
- Lysotracker average fluorescence intensity [2]: could not further increase
